These results are taken from PubChem BioAssay (NCI).

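Five concentrations, 48 hours, 96-well plates. TGI marks complete inhibition of growth.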

What all share (assay): inhibition of tumour cell growth, NCI panel, 48 h
Assay [1] has as its system M14 melanoma.
Assay [2] relates to TK-10 renal.
For assay [3], the system named is HT29 colon.
Assay [4] deals with UACC-257 melanoma.
Assay [5] deals with KM20L2 colon.
Assay [6] has as its system M19-MEL melanoma.
For assay [7], the system named is NCI-H522 lung.
Assay [8] deals with OVCAR-8 ovarian.
Assay [9] deals with HOP-18 NSCLC.
The subject of assay [10] is MCF7 breast.
The test system of assay [11] is MDA-MB-435.
The test system of assay [12] is NCI/ADR-RES ovarian.
The test system of assay [13] is HS 578T breast.

`Nc1c(S(=O)(=O)c2ccccc2)c2nc3ccccc3nc2n2c1nc1ccccc12`: the TGI was greater than 31.6 µM in assay [1]; greater than 100 µM in [2]; greater than 100 µM in assay [3]; greater than 100 µM in assay [4]; greater than 100 µM in assay [5]; greater than 100 µM in assay [6]. The TGI in assay [7] is greater than 100 µM; in assay [8], greater than 63.4 µM.
Consider `Cc1ccc(NC(=O)C(=O)C2C(=O)NC(=O)NC2=O)cc1C`, for which the TGI in assay [1], in [2], in assay [3], in [4], in assay [5] and in assay [6] was greater than 100 µM throughout. In addition, the TGI in [7], in assay [8] and in [9] was greater than 100 µM throughout.
`O=C1c2ccccc2C(=O)N1C/C=N/NS(=O)(=O)c1ccc(Br)cc1`: the TGI in [1], in assay [2], in assay [3], in assay [4], in [5] and in assay [6] was greater than 100 µM in each case. Besides, the TGI in assay [7], in [8] and in [9] was greater than 100 µM in each case.
Regarding `Cc1ccc(C(=O)NCc2ccccc2)cc1N=NN(C)C`, the TGI is greater than 100 µM in [1]; greater than 100 µM in assay [10]; greater than 100 µM in assay [2]; greater than 100 µM in [3]; 88.2 µM in assay [4]; greater than 100 µM in [5]. Moreover, the TGI in assay [6] was greater than 100 µM; in assay [11], greater than 100 µM; in assay [7], 90.1 µM; in assay [8], greater than 100 µM; in assay [12], greater than 100 µM; in assay [13], greater than 100 µM.
With `C[n+]1c2ccccc2c(NC(CCCN=C(N)N)C(=O)O)c2ccccc21` (centres undefined), the TGI in [1], in assay [2], in [3], in assay [4], in [5] and in [6] was greater than 100 µM each time. The TGI in [7], in assay [8] and in assay [9] was greater than 100 µM in each case.
As to `COc1ccc2nc3cc(Cl)ccc3c(Sc3ccc(NC(C)=O)cc3)c2c1`, the TGI is greater than 38.5 µM in assay [1]; greater than 51.1 µM in assay [2]; greater than 100 µM in assay [3]; greater than 41 µM in assay [4]; greater than 42.1 µM in assay [5]; greater than 22.2 µM in [6]. Also, the TGI is 7.85 µM in assay [7], greater than 21.1 µM in assay [8] and greater than 53.7 µM in assay [9].
Regarding `COc1cc(-c2nnc3n2NC=C(C(=O)O)S3)cc(OC)c1OC`, the TGI in assay [1], in [2], in [3], in [4], in [5] and in assay [6] was greater than 100 µM in each case. Besides, the TGI in assay [7], in [8] and in assay [9] was greater than 100 µM throughout.
Take `c1ccc2c(c1)OCCOCCOc1ccccc1OCCO2`: the TGI in [1] was greater than 100 µM; in assay [2], greater than 100 µM; in assay [3], greater than 100 µM; in assay [4], greater than 100 µM; in [5], 87.7 µM; in assay [6], greater than 100 µM. Also, the TGI in assay [7], in [8] and in [9] was greater than 100 µM each time.
`CSc1ccc2c(cc1=O)[C@@H](NC(=O)c1cc(O)c(O)c(O)c1)CCc1cc(O)c(O)c(O)c1-2`: the TGI in [1] is 36.6 µM; in [2] it was greater than 100 µM; in assay [3] it was 48.7 µM; in assay [4] it was 34.3 µM; in [5], greater than 100 µM; in assay [6], 29.9 µM. Also, the figures for the TGI in assay [7] and in [8] were 44.4 µM and 54.2 µM, respectively.
In the case of `Cc1c2ccc3ccccc3c2c[n+]2ccccc12`, the TGI in assay [1] is 37.5 µM; in [10], greater than 87.3 µM; in [2], greater than 100 µM; in assay [3], greater than 100 µM; in [4], 23.8 µM; in [5], greater than 64.1 µM. Further, the TGI in [6] is 15.9 µM; in [11], 35.2 µM; in [7], 14.7 µM; in assay [8] it was 39.6 µM; in assay [12], greater than 100 µM; in [13] it was 14.9 µM.
As for `COc1ccc(/C=N/N=C(\N)NO)c(OC)c1C`, the TGI in [3] is greater than 100 µM; in assay [4], greater than 100 µM; in assay [7] it was 26.4 µM; in assay [8], greater than 100 µM; in assay [9], 60.6 µM.
As for `CCOC(=O)CCC(NC(=O)c1ccc(NCc2ccc3nc(-c4ccccc4)c(Cl)nc3c2)cc1)C(=O)OCC` (centres undefined), the TGI was 39.5 µM in [1]; greater than 100 µM in assay [2]; greater than 100 µM in assay [3]; greater than 100 µM in assay [5]; 43.2 µM in assay [6]; 57.8 µM in assay [7].
On to `O=Cc1ccc(-c2ccc(-c3ccc(CO)s3)o2)s1`, for which the TGI was greater than 70.6 µM in assay [1]; greater than 100 µM in assay [10]; 0.627 µM in assay [2]; greater than 53.2 µM in [3]; 0.506 µM in assay [4]; greater than 49.3 µM in assay [11]. For the same compound, the TGI stood at 47.7 µM in [7], 49 µM in assay [8], 40.4 µM in assay [12] and 59.5 µM in assay [13].
Regarding `NC(=O)c1cn(Cc2ccccc2)c(=O)n1Cc1ccccc1`, the TGI in assay [1], in assay [2], in [3], in assay [4], in assay [5] and in [6] was greater than 100 µM each time. The TGI in [7], in assay [8] and in assay [9] was greater than 100 µM each time.
For `COc1cc2c(cc1O)NC(=O)[C@@H]1CCCN1C2=O`, the TGI in assay [1], in [10], in assay [2], in assay [3], in assay [4] and in [11] was greater than 100 µM in each case. The TGI in assay [7], in [8], in [12] and in [13] was greater than 100 µM throughout.
